{"source": "the NIST ThermoML archive (doi:10.1016/j.fluid.2013.12.017)", "experiment": "molar heat capacity at constant pressure", "conditions": "101 kPa, Liquid, Small sample (50 mg) DSC", "note": "± gives the expanded uncertainty stated by the source.", "data": [{"smiles": "CCC(N)(CO)CO", "note": "[2-amino-2-ethyl-1,3-propanediol]", "values": [{"measurement": "molar heat capacity at constant pressure", "setting": "303.15 K", "value": "367.5 ± 16", "unit": "J/K/mol"}, {"measurement": "molar heat capacity at constant pressure", "setting": "308.15 K", "value": "370.5 ± 16", "unit": "J/K/mol"}, {"measurement": "molar heat capacity at constant pressure", "setting": "313.15 K", "value": "374.1 ± 16", "unit": "J/K/mol"}, {"measurement": "molar heat capacity at constant pressure", "setting": "318.15 K", "value": "378 ± 16", "unit": "J/K/mol"}, {"measurement": "molar heat capacity at constant pressure", "setting": "323.15 K", "value": "381.5 ± 16", "unit": "J/K/mol"}, {"measurement": "molar heat capacity at constant pressure", "setting": "328.15 K", "value": "385.8 ± 16", "unit": "J/K/mol"}, {"measurement": "molar heat capacity at constant pressure", "setting": "333.15 K", "value": "389.9 ± 16", "unit": "J/K/mol"}, {"measurement": "molar heat capacity at constant pressure", "setting": "338.15 K", "value": "393.9 ± 17", "unit": "J/K/mol"}, {"measurement": "molar heat capacity at constant pressure", "setting": "343.15 K", "value": "398.6 ± 17", "unit": "J/K/mol"}, {"measurement": "molar heat capacity at constant pressure", "setting": "348.15 K", "value": "403.1 ± 17", "unit": "J/K/mol"}, {"measurement": "molar heat capacity at constant pressure", "setting": "353.15 K", "value": "408.2 ± 17", "unit": "J/K/mol"}]}]}
